The text below walks through data of article PMC7376443 (Bioorganic & medicinal chemistry letters, 2020).

Holding throughout (format): biochemical
In assay [1] the target is T1, ChTS-DHFR (thymidylate synthase-dihydrofolate reductase), TS activity (Cryptosporidium hominis, UniProt A0A0S4TER9). The experiment in a line: radiolabeled CH2H4F to H2F turnover by HPLC, single concentration […].
The target in assay [2] is human TS (thymidylate synthase, hTS) (Homo sapiens, UniProt P04818). Nature of the assay: TS activity assay, enzyme preincubated with compound without dUMP, […].
Chain of human TS (thymidylate synthase, hTS) (P04818 2-313): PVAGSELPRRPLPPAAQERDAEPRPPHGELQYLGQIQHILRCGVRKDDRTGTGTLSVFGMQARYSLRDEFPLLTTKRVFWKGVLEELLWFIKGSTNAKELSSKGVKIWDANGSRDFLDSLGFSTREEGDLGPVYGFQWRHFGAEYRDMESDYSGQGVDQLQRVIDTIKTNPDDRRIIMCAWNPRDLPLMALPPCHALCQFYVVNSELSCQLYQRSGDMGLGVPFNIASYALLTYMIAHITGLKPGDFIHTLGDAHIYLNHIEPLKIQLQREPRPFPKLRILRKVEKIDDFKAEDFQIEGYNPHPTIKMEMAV
The target of assay [3] is T1, ChTS-DHFR (thymidylate synthase-dihydrofolate reductase), TS activity.

Consider CD 11057 [compound 7], for which the “% Inhibition of ChTS Activity at 500 μM” value in assay [1] is 46.0 ± 0.8.

For orientation: IC50 means the concentration needed to halve the response being measured. Low values mean higher potency, high ones lower potency. For the substance HTS 00950 [compound 6], in assay [2], the “% inhibition at 500 uM” value is reported as ~ 50. In assay [3], the half-inhibitory concentration (IC50) worked out at 172 ± 11 µM.

Turning to HTS 00967 [compound 10], in assay [1], the “% Inhibition of ChTS Activity at 500 μM” value came to 55 ± 1.

Turning to HTS 03850 [compound 2], the “% Inhibition of ChTS Activity at 500 μM” value in assay [1] came out at 76 ± 9.
